Measurements taken from PubChem BioAssay (NCI).
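Cultured in 96-well plates, cells were exposed to test compound for 48 hours across five concentrations. Abbreviation: GI50, concentration required for 50% inhibition of growth. TGI denotes the concentration required for complete inhibition of growth.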 *1 amine or outer side, *2 acyl side, *3 side chain or, on linkers, in order; H or OH if unused. Where a SMILES comes first, the peptide text is derived from it. [ ]: non-standard residue; d: D form. The star is where a group is joined. X11 = C/C=C/CC(C)C(O)[C@H](N[*:1])C(=O)[*:2]; Decanoyl = CCCCCCCCCC(=O)*; Leu(ol) = CC(C)C[C@H](N)CO; Aib = CC(C)(N)C(=O)O

Assays:
Test in all cases: NCI anticancer screen, dose series, 48 h
SK-MEL-2 melanoma = tested on: SK-MEL-2 melanoma
SK-OV-3 ovarian = tested on: SK-OV-3 ovarian
DU-145 prostate = tested on: DU-145 prostate
OVCAR-4 ovarian = tested on: OVCAR-4 ovarian
LOX IMVI melanoma = tested on: LOX IMVI melanoma
OVCAR-3 ovarian = tested on: OVCAR-3 ovarian
NCI-H226 lung = tested on: NCI-H226 lung
NCI-H460 lung = tested on: NCI-H460 lung
RXF 393 renal = tested on: RXF 393 renal
SW-620 colon = tested on: SW-620 colon
K-562 leukemia = tested on: K-562 leukemia
MCF7 breast = tested on: MCF7 breast
NCI/ADR-RES ovarian = tested on: NCI/ADR-RES ovarian
MALME-3M melanoma = tested on: MALME-3M melanoma
U251 CNS = tested on: U251 CNS
OVCAR-5 ovarian = tested on: OVCAR-5 ovarian
COLO 205 colon = tested on: COLO 205 colon
HOP-92 NSCLC = tested on: HOP-92 NSCLC
UACC-62 melanoma = tested on: UACC-62 melanoma
ACHN renal = tested on: ACHN renal
HL-60(TB) leukemia = tested on: HL-60(TB) leukemia
SNB-19 CNS = tested on: SNB-19 CNS
HOP-62 NSCLC = tested on: HOP-62 NSCLC
NCI-H23 lung = tested on: NCI-H23 lung
UACC-257 melanoma = tested on: UACC-257 melanoma
BT-549 breast = tested on: BT-549 breast
MOLT-4 leukemia = tested on: MOLT-4 leukemia
HCT-15 colon = tested on: HCT-15 colon
SF-268 CNS = tested on: SF-268 CNS
SR leukemia = tested on: SR leukemia
EKVX NSCLC = tested on: EKVX NSCLC
OVCAR-8 ovarian = tested on: OVCAR-8 ovarian
IGROV1 ovarian = tested on: IGROV1 ovarian
PC-3 prostate = tested on: PC-3 prostate
M14 melanoma = tested on: M14 melanoma
A549 NSCLC = tested on: A549 NSCLC
TK-10 renal = tested on: TK-10 renal
HCC-2998 colon = tested on: HCC-2998 colon
MDA-MB-435 = tested on: MDA-MB-435
SK-MEL-5 melanoma = tested on: SK-MEL-5 melanoma
UO-31 renal = tested on: UO-31 renal
NCI-H522 lung = tested on: NCI-H522 lung
SN12C renal = tested on: SN12C renal
A498 renal = tested on: A498 renal
CCRF-CEM leukemia = tested on: CCRF-CEM leukemia
HT29 colon = tested on: HT29 colon
SF-539 CNS = tested on: SF-539 CNS
SK-MEL-28 melanoma = tested on: SK-MEL-28 melanoma
CAKI-1 renal = tested on: CAKI-1 renal
HS 578T breast = tested on: HS 578T breast
T-47D breast = tested on: T-47D breast
KM12 colon = tested on: KM12 colon
SF-295 CNS = tested on: SF-295 CNS
SNB-75 CNS = tested on: SNB-75 CNS
HCT-116 colon = tested on: HCT-116 colon
RPMI-8226 leukemia = tested on: RPMI-8226 leukemia
786-0 renal = tested on: 786-0 renal
MDA-MB-231 breast = tested on: MDA-MB-231 breast

## C/C=C/CC(C)C(O)[C@H](NC(=O)[C@@H]1CCCN1C(=O)C(C)(C)NC(=O)CCCCCCCCC)C(=O)NC(C)(C)C(=O)N[C@@H](CCC(N)=O)C(=O)N[C@H](CCC(N)=O)C(=O)NC(C)(C)C(=O)NC(C)(C)C(=O)N[C@@H](CCC(N)=O)C(=O)N[C@H](CC(C)C)C(=O)N[C@H](CO)CC(C)C (stereo partly drawn) (Decanoyl-[Aib]P[X11][Aib]Q[dQ][Aib][Aib]Q[dL][Leu(ol)])
SK-MEL-2 melanoma
  GI50: 1860 nM
  TGI: 4220 nM
SK-OV-3 ovarian
  GI50: 3110 nM
  TGI: 13300 nM
DU-145 prostate
  GI50: 1460 nM
  TGI: 2850 nM
OVCAR-4 ovarian
  GI50: 2950 nM
LOX IMVI melanoma
  GI50: 1720 nM
  TGI: 3450 nM
OVCAR-3 ovarian
  GI50: 1910 nM
  TGI: 3950 nM
NCI-H226 lung
  GI50: 1640 nM
  TGI: 3970 nM
NCI-H460 lung
  GI50: 1530 nM
  TGI: 3060 nM
RXF 393 renal
  GI50: 2140 nM
  TGI: 3980 nM
SW-620 colon
  GI50: 2380 nM
  TGI: 7110 nM
K-562 leukemia
  GI50: 1660 nM
  TGI: 4850 nM
MCF7 breast
  GI50: 1630 nM
  TGI: 3530 nM
NCI/ADR-RES ovarian
  GI50: 2390 nM
  TGI: 6860 nM
MALME-3M melanoma
  GI50: 1400 nM
  TGI: 2760 nM
U251 CNS
  GI50: 1460 nM
  TGI: 2970 nM
OVCAR-5 ovarian
  GI50: 1870 nM
  TGI: 3960 nM
COLO 205 colon
  GI50: 1610 nM
  TGI: 3330 nM
HOP-92 NSCLC
  GI50: 1660 nM
  TGI: 3970 nM
UACC-62 melanoma
  GI50: 1610 nM
  TGI: 3190 nM
ACHN renal
  GI50: 2500 nM
  TGI: 7430 nM
HL-60(TB) leukemia
  GI50: 2200 nM
  TGI: 5220 nM
SNB-19 CNS
  GI50: 1550 nM
  TGI: 3070 nM
HOP-62 NSCLC
  GI50: 1640 nM
  TGI: 3680 nM
NCI-H23 lung
  GI50: 2090 nM
  TGI: 5910 nM
UACC-257 melanoma
  GI50: 1540 nM
  TGI: 3090 nM
BT-549 breast
  GI50: 1840 nM
  TGI: 3370 nM
MOLT-4 leukemia
  GI50: 2100 nM
  TGI: 6440 nM
HCT-15 colon
  GI50: 2440 nM
  TGI: 7080 nM
SF-268 CNS
  GI50: 1750 nM
  TGI: 3700 nM
SR leukemia
  GI50: 1950 nM
  TGI: 8470 nM
EKVX NSCLC
  GI50: 1610 nM
  TGI: 3710 nM
OVCAR-8 ovarian
  GI50: 1500 nM
  TGI: 3760 nM
IGROV1 ovarian
  GI50: 2300 nM
  TGI: 7230 nM
PC-3 prostate
  GI50: 1140 nM
  TGI: 3180 nM
M14 melanoma
  GI50: 1690 nM
  TGI: 3350 nM
A549 NSCLC
  GI50: 2280 nM
TK-10 renal
  GI50: 2270 nM
  TGI: 5570 nM
HCC-2998 colon
  GI50: 2130 nM
  TGI: 5250 nM
MDA-MB-435
  GI50: 1680 nM
  TGI: 3070 nM
SK-MEL-5 melanoma
  GI50: 1720 nM
  TGI: 3160 nM
UO-31 renal
  GI50: 1590 nM
  TGI: 4220 nM
NCI-H522 lung
  GI50: 1670 nM
  TGI: 3400 nM
SN12C renal
  GI50: 1930 nM
  TGI: 5350 nM
A498 renal
  GI50: 1990 nM
  TGI: 4070 nM
CCRF-CEM leukemia
  GI50: 1870 nM
  TGI: 4000 nM
HT29 colon
  GI50: 2570 nM
SF-539 CNS
  GI50: 1620 nM
  TGI: 3000 nM
SK-MEL-28 melanoma
  GI50: 1690 nM
  TGI: 3100 nM
CAKI-1 renal
  GI50: 2210 nM
  TGI: 6090 nM
HS 578T breast
  GI50: 1540 nM
  TGI: 3280 nM
T-47D breast
  GI50: 2090 nM
  TGI: 5670 nM
KM12 colon
  GI50: 1840 nM
  TGI: 3680 nM
SF-295 CNS
  GI50: 1390 nM
  TGI: 2900 nM
SNB-75 CNS
  GI50: 1740 nM
  TGI: 3220 nM
HCT-116 colon
  GI50: 2210 nM
  TGI: 5160 nM
RPMI-8226 leukemia
  GI50: 1850 nM
  TGI: 4260 nM
786-0 renal
  GI50: 1760 nM
  TGI: 3330 nM
MDA-MB-231 breast
  GI50: 1630 nM
  TGI: 3100 nM
